Source: ChEMBL document CHEMBL1136369, “N,N-disubstituted piperazines: synthesis and affinities at alpha4beta2(*) and alpha7(*) neuronal nicotinic acetylcholine receptors” (Bioorg Med Chem Lett, 2003)

Legend:
[1] = molecular target: Neuronal acetylcholine receptor subunit alpha-7 (Rattus norvegicus, UniProt Q05941); assay: Binding affinity towards alpha-7 neuronal nicotinic acetylcholine receptor (nAChRs) measured by using the inhibition of [3H]-MLA binding to whole brain membrane
[2] = molecular target: Neuronal acetylcholine receptor; alpha4/beta2 (Rattus norvegicus, UniProt P09483+P12390); assay: Binding affinity towards alpha4-beta2 measured by using the inhibition of [3H]NIC binding to rat striatal membrane; design: species or system Striatum
Sequence of Neuronal acetylcholine receptor; alpha4/beta2 (P09483 whole entry): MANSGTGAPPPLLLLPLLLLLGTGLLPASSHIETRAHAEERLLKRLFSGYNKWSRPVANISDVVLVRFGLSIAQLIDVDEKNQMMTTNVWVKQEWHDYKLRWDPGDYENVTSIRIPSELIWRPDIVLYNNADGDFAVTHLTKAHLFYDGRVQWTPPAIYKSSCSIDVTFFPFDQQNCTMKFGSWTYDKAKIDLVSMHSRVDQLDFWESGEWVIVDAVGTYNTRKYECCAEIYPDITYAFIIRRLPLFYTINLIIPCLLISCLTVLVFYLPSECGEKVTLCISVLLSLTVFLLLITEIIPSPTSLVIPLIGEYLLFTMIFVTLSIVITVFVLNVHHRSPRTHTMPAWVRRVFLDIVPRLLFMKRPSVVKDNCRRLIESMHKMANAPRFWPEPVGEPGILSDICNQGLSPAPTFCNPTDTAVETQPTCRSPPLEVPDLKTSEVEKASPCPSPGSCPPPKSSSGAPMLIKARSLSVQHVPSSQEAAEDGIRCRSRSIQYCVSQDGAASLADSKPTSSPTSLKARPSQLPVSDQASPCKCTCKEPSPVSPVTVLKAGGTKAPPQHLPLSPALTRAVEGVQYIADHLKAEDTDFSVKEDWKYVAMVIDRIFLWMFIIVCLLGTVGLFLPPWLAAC
Sequence of Neuronal acetylcholine receptor; alpha4/beta2 (P12390 whole entry): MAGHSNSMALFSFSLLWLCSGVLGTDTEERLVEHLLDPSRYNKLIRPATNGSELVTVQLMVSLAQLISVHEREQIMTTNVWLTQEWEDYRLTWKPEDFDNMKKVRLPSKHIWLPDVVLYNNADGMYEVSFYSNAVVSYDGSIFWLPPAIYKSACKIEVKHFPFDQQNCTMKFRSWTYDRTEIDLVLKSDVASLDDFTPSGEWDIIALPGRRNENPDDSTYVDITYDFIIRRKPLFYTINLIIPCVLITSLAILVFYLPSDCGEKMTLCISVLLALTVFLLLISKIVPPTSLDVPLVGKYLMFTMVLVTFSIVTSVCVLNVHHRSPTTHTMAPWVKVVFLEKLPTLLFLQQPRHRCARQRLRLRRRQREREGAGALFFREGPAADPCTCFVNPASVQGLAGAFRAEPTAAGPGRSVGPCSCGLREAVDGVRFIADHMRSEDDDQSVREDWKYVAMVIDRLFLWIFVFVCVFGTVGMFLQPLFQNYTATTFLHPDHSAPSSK

Sequence of Neuronal acetylcholine receptor subunit alpha-7 (Q05941 whole entry): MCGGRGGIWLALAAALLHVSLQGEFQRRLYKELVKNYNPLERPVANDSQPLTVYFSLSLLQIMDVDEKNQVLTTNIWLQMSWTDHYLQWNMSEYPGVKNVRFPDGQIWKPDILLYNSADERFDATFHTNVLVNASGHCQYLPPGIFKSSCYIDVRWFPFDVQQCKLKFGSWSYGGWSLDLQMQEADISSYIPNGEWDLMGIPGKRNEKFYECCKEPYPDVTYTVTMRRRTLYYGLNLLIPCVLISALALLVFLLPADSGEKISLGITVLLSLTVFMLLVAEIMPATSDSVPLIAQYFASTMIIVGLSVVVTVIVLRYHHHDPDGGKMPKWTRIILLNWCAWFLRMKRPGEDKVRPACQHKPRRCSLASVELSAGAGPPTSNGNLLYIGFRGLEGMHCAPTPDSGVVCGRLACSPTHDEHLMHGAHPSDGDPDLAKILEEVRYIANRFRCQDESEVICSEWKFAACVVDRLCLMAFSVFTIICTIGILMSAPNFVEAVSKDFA

Ki [1] [µM] | Compound | Ki [2] [µM]
> 100 | CN1CCC[C@H]1CN1CCN(Cc2cccnc2)CC1 | –
> 100 | O=C([C@@H]1CCCN1)N1CCN(Cc2ccccn2)CC1 | > 100
> 100 | c1cncc(CN2CCN(C[C@@H]3CCCN3)CC2)c1 | > 100
> 100 | O=C(C1CCCCN1)N1CCN(Cc2ccncc2)CC1 (racemic) | 60.5
> 100 | CN1CCCCC1CN1CCN(Cc2cccnc2)CC1 (racemic) | –
> 100 | O=C(C1CCCCN1)N1CCN(Cc2ccccn2)CC1 (racemic) | > 100
> 100 | c1cncc(CN2CCN(CC3CCCCN3)CC2)c1 (racemic) | > 100

Compound | Ki [1] [µM] | Ki [2] [µM]
CN1CCC[C@H]1CN1CCN(Cc2ccncc2)CC1 | > 100 | 38.9
c1cc(CN2CCN(C[C@@H]3CCCN3)CC2)ccn1 | > 100 | 46
CN1CCCCC1CN1CCN(Cc2ccncc2)CC1 (racemic) | > 100 | 42
c1cc(CN2CCN(CC3CCCCN3)CC2)ccn1 (racemic) | > 100 | > 100
O=C(C1CCCCN1)N1CCN(Cc2cccnc2)CC1 (racemic) [SCR01020] | > 100 | 54.8
c1cncc([C@@H]2CCCN2)c1 [NORNICOTINE] | 1.19 | –
